We go through four molecules from patent US20260042759A1, “INHIBITOR CONTAINING BICYCLIC DERIVATIVE, PREPARATION METHOD THEREFOR AND USE THEREOF” (SHANGHAI HANSOH BIOMEDICAL CO., LTD., priority 2019, published 2026).

For series [1], the target named is T1, RET (Homo sapiens, UniProt P07949).
T1 construct: purchased Carna 08-159
In words: HTRF kinase assay, RET wild-type. Format: biochemical. The following applies: ATP at Km. From the text:
(§1) • RET enzyme was purchased from Carna Company, and the article number was 08-159; • RET M918T enzyme was purchased from Carna Company, and the article number was 08-508; • KIF5B-RET was purchased from SignalChem Company, the article number was R02-19FG-05; • CCDC6-RET was purchased from SignalChem Company, the article number was R02-19BG-05; • RET V804M enzyme was purchased from Thermofisher Company, and the article number was PV6223; • RET V804L enzyme was purchased from Thermofisher Company, and the article number was PV4397; • HTRF KinEASE-TK kit was purchased from Cisbio Company, and the article number was 62TK0PEC; • ATP was purchased from Thermofisher Company, and the article number was PV3227; • 384-well plate was purchased from PerkinElmer Company, and the article number was 6007290.
(§2) In this experiment, the homogeneous time-resolved fluorescence (HTRF) method was used for the detection of compounds on RET kinase activity.

Series [2] addresses T2, KDR kinase (Homo sapiens, UniProt P35968).
T2 construct: purchased Carna 08-191
In words: HTRF kinase assay, KDR. The note with it: for IC50: HTRF, ATP at Km; for Ratio (KDR/RET): KDR IC50 / RET IC50. In kind it is biochemical. An excerpt: • KDR kinase was purchased from Carna Company, and the article number was 08-191; • HTRF KinEASE-TK kit was purchased from Cisbio Company, and the article number was 62TK0PEC; • ATP was purchased from Thermofisher Company, and the article number was PV3227; • 384-well plate was purchased from PerkinElmer Company, and the article number was 6007290.
In this experiment, the homogeneous time-resolved fluorescence (HTRF) method was used for the detection of compounds on KDR kinase activity.
(Time-resolved FRET reads energy transfer from a long-lived donor to a nearby acceptor.)

The test system of series [3] is TT cells (MTC, RET C634W). In words: TT cell proliferation (CellTiter-Glo). Format: cell-based, human. The note with it: Homo sapiens, TT, 72 h. The protocol: When TT cells were cultured to the appropriate fusion level, TT cells were collected, and the cells were adjusted to the appropriate cell concentration using complete medium, and the cell suspension was spread in a 96-well plate, 90 µL per well, and placed in a 37° C., 5% CO2 incubator overnight; and compound solutions of different concentrations were prepared using DMSO and culture medium; and a solvent control was set, the compound solution was added to a 96-well plate, 10 µL per well, at 37° C. in a 5% CO2 incubator for 72 hours; CellTiter-Glo solution was added thereto and the mixture was mixed well by shaking, incubated for 10 min in the dark, and read by BioTek Synergy H1 microplate reader.
The luminescence signal values were used to calculate the inhibition rate, the concentration and the inhibition rate were fitted to a nonlinear regression curve using Graphpad Prism software.
Background: In ATP-based viability assays light output follows the ATP content of the culture.

The target in series [4] is T3, Ba/F3 KIF5B-RET cells (Homo sapiens, UniProt P07949).
T3 construct: fused on or other part: P33176 (Kinesin-1 heavy chain)
T3 sequence (P07949 whole entry, change not shown, the tested form may be a part): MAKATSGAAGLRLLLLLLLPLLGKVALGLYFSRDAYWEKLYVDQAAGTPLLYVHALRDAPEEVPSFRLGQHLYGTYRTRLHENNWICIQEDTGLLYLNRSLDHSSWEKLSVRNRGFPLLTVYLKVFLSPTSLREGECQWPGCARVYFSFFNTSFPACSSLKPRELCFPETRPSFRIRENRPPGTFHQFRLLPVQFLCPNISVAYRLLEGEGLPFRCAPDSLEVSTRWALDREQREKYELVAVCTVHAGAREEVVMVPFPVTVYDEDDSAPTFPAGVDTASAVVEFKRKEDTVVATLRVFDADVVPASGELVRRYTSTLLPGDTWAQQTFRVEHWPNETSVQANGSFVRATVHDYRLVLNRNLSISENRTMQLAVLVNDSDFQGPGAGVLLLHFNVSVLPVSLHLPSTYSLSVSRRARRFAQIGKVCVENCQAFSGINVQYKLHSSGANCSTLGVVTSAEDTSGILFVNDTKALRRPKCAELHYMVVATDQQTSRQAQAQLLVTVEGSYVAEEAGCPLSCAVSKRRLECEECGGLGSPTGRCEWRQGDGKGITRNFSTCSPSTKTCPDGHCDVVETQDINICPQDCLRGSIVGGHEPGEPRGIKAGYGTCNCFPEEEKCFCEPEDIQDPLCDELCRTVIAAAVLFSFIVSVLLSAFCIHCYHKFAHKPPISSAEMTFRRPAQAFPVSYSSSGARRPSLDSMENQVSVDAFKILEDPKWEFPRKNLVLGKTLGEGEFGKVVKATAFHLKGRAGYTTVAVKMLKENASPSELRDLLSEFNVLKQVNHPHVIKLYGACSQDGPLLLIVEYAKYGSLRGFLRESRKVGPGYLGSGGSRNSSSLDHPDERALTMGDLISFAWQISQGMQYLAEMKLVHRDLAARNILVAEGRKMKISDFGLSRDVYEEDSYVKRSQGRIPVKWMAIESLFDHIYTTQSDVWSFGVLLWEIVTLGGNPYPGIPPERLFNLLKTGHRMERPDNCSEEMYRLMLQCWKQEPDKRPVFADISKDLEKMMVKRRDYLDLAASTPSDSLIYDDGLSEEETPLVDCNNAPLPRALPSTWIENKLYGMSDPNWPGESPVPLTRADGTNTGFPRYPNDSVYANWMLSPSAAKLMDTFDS
The series is described as follows: Ba/F3 KIF5B-RET cell proliferation (CellTiter-Glo). The following applies: 72 to 144 hours, read-out: Ba/F3 KIF5B-RET IC50. Format: cell-based. The protocol:
When Ba/F3 KIF5B-RET cells were cultured to the appropriate cell density, cells were collected, and the cells were adjusted to the appropriate cell concentration using complete medium, and the cell suspension was spread in a 96-well plate, 90 μL per well, and placed in a 37° C., 5% CO2 incubator for overnight; compound solutions of different concentrations were prepared using DMSO and culture medium; a solvent control was set, and the compound solution was added to a 96-well plate with 10 μL per well at 37° C. in a 5% CO2 incubator for 72 to 144 hours; CellTiter-Glo solution was added thereto and mixed well by shaking, incubated for 10 min in the dark, and read by BioTek Synergy H1 microplate reader.
The luminescence signal values were used to calculate the inhibition rate, the concentrations and the inhibition rates were fitted to a nonlinear regression curve using Graphpad Prism software.

In series [5] the test system is phosphorylation of ERK, a downstream signal factor of TT cells. In words: ERK phosphorylation in TT cells (Western Blot). In kind it is cell-based, human. The following applies: 3.7-300 nM, 2 hours. The protocol:
In this experiment, the inhibitory effect of compounds on the phosphorylation level of ERK, a downstream signaling factor in TT cells, was measured by Western Blot method. When TT cells were cultured to the appropriate fusion degree, the cells were collected and adjusted to a suitable cell concentration using complete medium, the cell suspension was spread in a 24-well plate, 1 mL per well, and placed in a 37° C., 5% CO2 incubator overnight, and compound dilutions of different concentrations (3.7 nM, 11.1 nM, 33.3 nM, 100 nM, 300 nM) were added at 37° C. and acted for 2 hours; the cell supernatant was aspirated, washed one time with PBS, and the proteins were collected with lysate; after protein denaturation, Western blot experiments were performed: performing protein electrophoresis at 120V for approximately 75 minutes, followed by 45 minutes of transfer to PVDF membranes at 10V with a semi-dry transfer instrument, enclosing at 5% BSA for 1 hour at room temperature, and then PVDF membranes were cut into strips of appropriate size and incubated with prepared antibody dilutions overnight at 4° C. and washed 6 times with TBST, followed by imaging with goat anti-mouse secondary antibody and sheep anti-rabbit secondary antibody for 1 hour at room temperature, and the membrane was washed 6 times with TBST for imaging in the Biorad ChemiDoc™ MP Imaging System.
The inhibitory effect of compounds on ERK phosphorylation levels in TT cells at different concentrations was determined by detecting protein bands.

Series [6] addresses T4, RET M918T (Homo sapiens, UniProt P07949, M918T).
T4 construct: purchased Carna 08-508
The series is described as follows: HTRF kinase assay, RET M918T. Format: biochemical. The following applies: ATP at Km.
Description: as §1, §2

Series [7] can be described thus: Balb/C mouse pharmacokinetics, oral. In kind it is in vivo. The following applies: male, mouse, po, Balb/C mice, p.o., 5 mg/kg, plasma. The protocol:
The pharmacokinetic behavior of the following compound embodiments, administered orally at a dose of 5 mg/kg in plasma in mice, was studied using Balb/C mice as test animals.
Balb/C Mouse 6/embodiment, male, Shanghai Jiesijie Laboratory Animal Co., Ltd, Animal Production License No. (SCXK (Shanghai) 2013-0006 N0.311620400001794).
Balb/C mice, males; p.o. after overnight fasting, respectively, at a dose of 5 mg/kg, administered in a volume of 10 mL/kg.
0.5% CMC-Na(1% Tween80) was dissolved by ultrasound, and prepared into clear solution or uniform suspension.
Before and after administration, 0.1 mL of blood was collected from mice at 0, 0.5, 1, 2, 4, 6, 8 and 24 hours by orbital collection, placed in EDTA-K2 tubes, centrifuged at 6000 rpm at 4° C. for 6 min to separate plasma, and stored at −80° C.
40 μL of plasma sample was precipitated by adding 160 μL of acetonitrile, mixed and centrifuged at 3500×g for 5-20 min.
100 μL of the supernatant solution after treatment was taken to analyze the concentration of the test compound by LC/MS/MS.
The main pharmacokinetic parameters were calculated using WinNonlin 6.1 and the results of the mouse pharmacokinetic experiments were shown in Table 8 below.

Usually IC50 stands for the point on the concentration scale where inhibition reaches its midpoint. What is called MRT is a mean duration of stay, worked out from the concentration-time curve. Broadly, the Tmax is the time from dosing to the highest level.

T2 sequence (P35968 20-1356): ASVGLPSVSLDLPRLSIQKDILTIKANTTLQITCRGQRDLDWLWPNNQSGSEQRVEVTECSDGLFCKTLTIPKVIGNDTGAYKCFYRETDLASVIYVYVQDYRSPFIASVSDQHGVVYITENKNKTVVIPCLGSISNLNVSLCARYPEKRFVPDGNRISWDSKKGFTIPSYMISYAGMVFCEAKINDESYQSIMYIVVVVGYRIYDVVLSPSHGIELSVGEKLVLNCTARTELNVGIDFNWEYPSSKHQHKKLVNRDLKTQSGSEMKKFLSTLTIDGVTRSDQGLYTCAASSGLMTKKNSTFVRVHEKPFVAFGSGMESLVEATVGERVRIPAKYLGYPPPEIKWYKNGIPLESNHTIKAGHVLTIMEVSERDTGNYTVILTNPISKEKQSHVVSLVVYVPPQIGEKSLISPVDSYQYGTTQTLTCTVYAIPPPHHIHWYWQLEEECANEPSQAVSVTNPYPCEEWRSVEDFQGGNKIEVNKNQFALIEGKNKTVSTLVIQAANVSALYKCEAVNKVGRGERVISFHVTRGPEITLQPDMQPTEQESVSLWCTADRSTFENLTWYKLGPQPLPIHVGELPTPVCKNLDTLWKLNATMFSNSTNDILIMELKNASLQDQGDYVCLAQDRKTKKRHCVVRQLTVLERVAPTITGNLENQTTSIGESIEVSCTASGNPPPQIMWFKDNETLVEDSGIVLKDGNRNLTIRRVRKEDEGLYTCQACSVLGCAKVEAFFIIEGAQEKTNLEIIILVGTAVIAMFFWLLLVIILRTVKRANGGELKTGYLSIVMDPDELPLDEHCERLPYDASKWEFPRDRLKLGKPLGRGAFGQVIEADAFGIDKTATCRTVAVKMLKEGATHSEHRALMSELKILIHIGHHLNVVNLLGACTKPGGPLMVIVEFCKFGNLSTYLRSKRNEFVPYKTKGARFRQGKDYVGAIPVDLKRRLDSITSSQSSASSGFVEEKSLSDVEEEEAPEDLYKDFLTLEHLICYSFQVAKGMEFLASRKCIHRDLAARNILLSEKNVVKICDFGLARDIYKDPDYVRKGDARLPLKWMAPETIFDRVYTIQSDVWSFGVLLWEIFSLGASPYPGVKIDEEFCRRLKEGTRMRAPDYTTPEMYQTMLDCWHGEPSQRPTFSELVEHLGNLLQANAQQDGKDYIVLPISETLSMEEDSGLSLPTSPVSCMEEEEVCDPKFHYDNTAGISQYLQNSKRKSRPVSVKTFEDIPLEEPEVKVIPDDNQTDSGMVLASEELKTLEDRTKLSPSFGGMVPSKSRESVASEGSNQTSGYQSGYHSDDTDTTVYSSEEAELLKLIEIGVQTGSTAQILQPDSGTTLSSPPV
T1 sequence (P07949 29-1114): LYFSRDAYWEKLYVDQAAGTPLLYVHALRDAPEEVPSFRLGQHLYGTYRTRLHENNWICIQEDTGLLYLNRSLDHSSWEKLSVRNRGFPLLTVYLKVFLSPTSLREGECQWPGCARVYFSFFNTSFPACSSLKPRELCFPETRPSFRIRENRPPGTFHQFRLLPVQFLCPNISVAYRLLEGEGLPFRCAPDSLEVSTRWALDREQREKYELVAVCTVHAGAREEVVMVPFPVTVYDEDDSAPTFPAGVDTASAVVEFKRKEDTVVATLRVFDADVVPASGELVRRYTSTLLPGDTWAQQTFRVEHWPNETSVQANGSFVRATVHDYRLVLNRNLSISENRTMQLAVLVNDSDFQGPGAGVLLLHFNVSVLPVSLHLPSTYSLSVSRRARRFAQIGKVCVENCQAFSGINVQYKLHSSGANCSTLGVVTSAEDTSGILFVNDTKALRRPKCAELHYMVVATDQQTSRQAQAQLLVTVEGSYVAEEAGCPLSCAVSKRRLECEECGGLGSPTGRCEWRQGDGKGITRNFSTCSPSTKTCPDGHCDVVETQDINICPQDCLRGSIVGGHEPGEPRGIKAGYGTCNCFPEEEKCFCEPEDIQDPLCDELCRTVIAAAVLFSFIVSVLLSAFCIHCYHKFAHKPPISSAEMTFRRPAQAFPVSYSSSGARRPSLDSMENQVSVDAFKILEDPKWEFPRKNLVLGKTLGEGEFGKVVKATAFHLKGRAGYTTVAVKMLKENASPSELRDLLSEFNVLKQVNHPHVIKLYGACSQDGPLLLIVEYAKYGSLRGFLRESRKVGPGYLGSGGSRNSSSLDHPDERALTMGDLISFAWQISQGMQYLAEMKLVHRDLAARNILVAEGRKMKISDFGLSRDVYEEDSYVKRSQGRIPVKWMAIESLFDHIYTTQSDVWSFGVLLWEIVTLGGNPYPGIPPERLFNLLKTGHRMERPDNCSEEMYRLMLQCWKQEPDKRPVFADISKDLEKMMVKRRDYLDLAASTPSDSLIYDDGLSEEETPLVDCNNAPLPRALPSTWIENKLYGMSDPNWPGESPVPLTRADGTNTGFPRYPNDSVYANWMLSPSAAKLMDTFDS
T4 sequence (P07949 29-1114 M918T): as the sequence (P07949 29-1114) above, with M890T counted along it

Regarding `COc1ncc(CN2C3CC2CN(c2ccc(-c4cc(OC[C@H]5C[C@@](C)(O)C5)cn5ncc(C#N)c45)cn2)C3)cc1F` [Embodiment 161, 4-(6-(6-((5-Fluoro-6-methoxypyridin-3-yl)methyl)-3,6-diazabicyclo[3.1.1]heptan-3-yl)pyridin-3-yl)-6-((cis-3-hydroxy-3-methylcyclobutyl)methoxy)pyrazolo[1,5-a]pyridine-3-carbonitrile], the IC50 in series [1] amounted to 0.37 nM; in series [2], 7.4 nM; in series [3], 13.9 nM. For the same molecule, the “Ratio (KDR/RET)” value in series [2] is 20. For the same molecule, the GI50 in series [4] came out at 8.59 nM.
As for `C#C[C@@](C)(O)COc1cc(-c2ccc(N3CC4CC(C3)N4Cc3ccc(OC)nc3)nc2)c2c(C#N)cnn2c1` [Embodiment 152, 6-(((R)-2-hydroxy-2-methylbut-3-yn-1-yl)oxy)-4-(6-(6-((6-methoxypyridin-3-yl)methyl)-3,6-diazabicyclo[3.1.1]heptan-3-yl)pyridin-3-yl)pyrazolo[1,5-a]pyridine-3-carbonitrile], the “inhibition of the phosphorylation level of ERK in TT cells, overall” value in series [5] was “significantly inhibit”.
Turning to `CC1(NC(=O)c2ncccc2Cl)CCN(c2ccc(-c3cc(C#CC4(O)COC4)cn4ncc(C#N)c34)cn2)CC1` [Embodiment 175, 3-Chloro-N-(1-(5-(3-cyano-6-((3-hydroxyoxetan-3-yl)ethynyl)pyrazolo[1,5-a]pyridin-4-yl)pyridin-2-yl)-4-methylpiperidin-4-yl)picolinamide], the figures for the IC50 in series [1], in series [2] and in series [3] were 0.25 nM, 47 nM and 18.5 nM, respectively. In addition, in series [2], the “Ratio (KDR/RET)” value was found to be 185. Moreover, the GI50 in series [4] was determined as 15.5 nM.
On to `COc1ccc(CN2C3CC2CN(c2ccc(-c4cc(OCC5(C#N)CC5)cn5ncc(C#N)c45)cn2)C3)cn1` [Embodiment 106, 6-((1-Cyanocyclopropyl)methoxy)-4-(6-(6-((6-methoxypyridin-3-yl)methyl)-3,6-diazabicyclo[3.1.1]heptan-3-yl)pyridin-3-yl)pyrazolo[1,5-a]pyridine-3-carbonitrile], for which the values for the IC50 in series [6] and in series [3] were 0.47 nM and 19 nM, respectively. Also, the MRT in series [7] (read-out: Average residence time MRT) was determined as 4.71 h. In addition, in series [7] (read-out: Blood concentration Cmax), the Cmax came to 3120 ng/mL. In addition, the AUC(0-t) in series [7] (read-out: Curve area AUC0-t) turned out to be 18900 ng·h/mL. The AUC(0-inf) in series [7] (read-out: Curve area AUC0-∞) turned out to be 18900 ng·h/mL. In addition, the half-life in series [7] (read-out: Half-life t1/2 (converted)) was 2.66 h. Further, the Tmax in series [7] (read-out: Peak time tmax) stood at 0.5 h.
